Source: patent US5153201A, “Condensed thiazole compounds and use as pharmaceuticals” (Takeda Chemical Industries, Ltd., priority 1990, dated 1992)

Tested on: excitatory behavior induced by spinal intrathecal injection of FeCl2 in mice
Assay: Effects of drugs on the excitatory behavior induced by spinal intrathecal injection of FeCl2 in mice
Type: in vivo
Details: for Percent inhibition (%): inhibition of mean behavioral score versus saline, 100 mg/kg orally 30 min. prior to FeCl2 injection, mice; for Average score, administration of compound (100 mg/kg): male Slc:ICP mice (5 weeks), 100 mg/kg orally 30 min. prior to FeCl2 (5 μl of 50 mM, intrathecal), observed 15 min. to 1 hr., score 0 normal to 5 death
Experimental: Effects of drugs on the excitatory behavior induced by spinal intrathecal injection of FeCl2 in mice Male Slc:ICP mice (5 weeks) were used. Each group consisted of 10 mice. 5 μl of 50 mM FeCl2 in saline was injected into spinal subarchnoid space between the 1st sacral and the 6th lumbar segment, the behavioral responses were observed from 15 min. to 1 hr. after the intrathecal injection of FeCl2 and scored as follows. |Score Behavioral responses |0: normal (no abnormal behavior) |1: vigorously biting lower abdomen or lower | extremities |2: a) extremely biting lower body with rolling | b) hyperreactivity and […] to external stimuli | c) tremor | at least one of above three behavioral changes were | observed |3: clonic convulsion |4: tonic convulsion or paralysis of lower extremities. |5: death The test compounds (100 mg/kg) were orally administered 30 min. prior to FeCl2 injection.

Row | SMILES | Percent inhibition (%) | Average score, administration of compound (100 mg/kg)
1 | COc1cccc(C=Cc2nc3c(s2)NCCC3)c1OC [Example 1, 2-(2,3-Dimethoxystyryl)-4,5,6,7-tetrahydrothiazolo[5,4-b]pyridine] | 82.6% | 0.8
2 | Cc1ccc(-c2nc3c(s2)NCCC3)cc1N [Example 2, 2-(3-Amino-4-methylphenyl)-4,5,6,7-tetrahydrothiazolo[5,4-b]pyridine] | 85.1% | 0.7
3 | Cc1ccc(-c2nc3c(s2)NCCC3)cc1N.Cl.Cl [Example 3, 2-(3-Amino-4-methylphenyl)-4,5,6,7-tetrahydrothiazolo[5,4-b]pyridine dihydrochloride] | 80.9% | 0.9
4 | Cl.Cl.Cn1cnc(C=Cc2nc3c(s2)NCCC3)c1 [Example 5, 2-{2-(1-Methylimidazole-4-yl)ethenyl}-4,5,6,7-tetrahydrothiazolo[5,4-b]pyridine dihydrochloride] | 91.3% | 0.4
5 | CCn1cc(C=Cc2nc3c(s2)NCCC3)nc1-c1ccccc1 [Example 6, 2-{2-(1-Ethyl-2-phenylimidazole-4-yl)ethenyl}-4,5,6,7-tetrahydrothiazolo[5,4-b]pyridine] | 97.9% | 0.1
